Measured values as given in patent US6087493A, “Porphyrin compounds as telomerase inhibitors” (Regents of the University of Texas System, priority 1998, dated 2000).
Like-named read-outs stand apart in the source and are kept apart here.

Key:
MCF7 cells = assay: Cell cycle analysis in MCF7 cells; assay type: cell-based, human
Method: The effects of TMPyP4 on the cell cycle were assessed by flow cytometry by measuring the percentage of cells in G1/G0, S, and G2/M phases, with and without treatment with the porphyrin. Cells were stained with 50 μg/ml propidium iodide in a hypotonic sodium citrate solution with 0.3% NP-40 and 1.0 mg/ml RNase-A at 1.0×10^6 cells/ml, vortexed and stained for 30 min at room temperature in the dark. Prior to flow cytometric measurements, samples were filtered through a 37 μm nylon mesh into 12×75 mm tubes and stored at 4° C. until analysis within 24 h. All samples were analyzed with an EPICS ELITE flow cytometer (Coulter Cytometry, Miami, Fla.) using a 15 m Watt argon ion laser operated at 6 Amps of power at 488 nm for fluorochrome excitation. Photomultiplier tube voltage was adjusted for each control sample to position the G0G1 to channel 240 on a 1024 channel presentation. The propidium iodide emission was collected through a 675 nm long pass filter. Histograms were analyzed for cell cycle compartments using MultiCycle-PLUS Version 3.0 (Phoenix Flow Systems, San Diego, Calif.). Histograms all had 50K events collected to maximize the statistical validity of the compartmental analysis.
The inventors examined whether the treatment of MCF7 cells with TMPyP4 affected the cell cycle.

[1] = mice; cited from earlier work
[2] = system: cultured human dermal fibroblasts; settings: Georgiou et al., 1994, cited from earlier work
HeLa = assay: cells; assay type: cell-based, human; settings: Homo sapiens; HeLa, MTT (n = 3 ± SEM); read-out: Cytotoxicity
DU145 = assay: Cytotoxicity (MTT) DU145; assay type: cell-based, human; settings: Homo sapiens, DU-145; DU145 (prostate), 4-7 days; read-out: IC 50 cytotoxicity
Method: (§1) The cells were cultured in the presence of the porphyrins incubator for 4-7 days and then treated with 3-(4,5-dimethylthiazol-2-yl)-2,5-diphenyl-tetrazolium bromide (MTT). Formazan concentration was quantitated by absorbance at 570 nm.

[3] = system: single-stranded sequence bearing four human telomeric repeats
Method: The DNA was labeled with 32p at the 5'-end and stored in buffer (10 mM Tris-HCl, 1 mM EDTA, pH 8.0) at 3000 cpm/μl. For each photocleavage reaction, 10 μl of DNA (~5 ng) was mixed with 10 μl of 200 mM KCl, boiled for 10 min, and cooled to room temperature. For the control studies, 10 μl of distilled water was added instead of the KCl solution. The mixtures were transferred to a 96 well plate, 2 μl of 1 μM aqueous TMPyP4 solution added, and the samples exposed to a 24 W fluorescent day-light under a glass filter for various periods of time. The reactions were stopped with 100 μl of calf thymus DNA (0.1 μg/μl), and after phenol-chloroform extraction, the samples were subjected to strand breakage treatment and ethanol precipitation (Han and Hurley, 1996).
A single-stranded sequence bearing four human telomeric repeats was treated with TMPyP4 and then exposed to light.

[4] = Cytotoxicity (MTT) NHLF normal lung fibroblasts; assay type: cell-based; settings: human, nhlf cells; NHLF (normal), 4-7 days; read-out: IC 50 cytotoxicity
Method: as §1
All porphyrins were obtained from Midcentury, Posen, Ill. The experimental work with porphyrins was performed under minimum exposure to light. All human tumor cell lines and normal human breast cells Hs578Bst were purchased from the American Type Culture Collection. Normal human lung fibroblasts NHLF were obtained from Clonetics Corporation. The cell lines were grown according to the suppliers' instructions.

Raji = assay: Cytotoxicity (MTT) Raji; assay type: cell-based, human; settings: Homo sapiens; Raji (lymphoma), 4-7 days; read-out: IC 50 cytotoxicity
Method: as §1

Daudi = assay: cells; assay type: cell-based, human; settings: Homo sapiens; Daudi (lymphoma), 4-7 days; read-out: IC 50 cytotoxicity
Method: as §1

MCF-7 = assay: Cytotoxicity (MTT) MCF-7; assay type: cell-based, human; settings: Homo sapiens, MCF7; MCF-7 (breast), 4-7 days; read-out: IC 50 cytotoxicity
Method: as §1

[5] = system: telomere length in MCF7 cells; assay: Telomere length analysis in MCF7 cells; assay type: cell-based, human; settings: 1 and 10 μM, by day 8 (about 6 population doublings)
Method: DNA was extracted from a minimum of 5×10^6 cells by SDS, proteinase K treatment, then purified and quantitated as previously described (Strahl and Blackburn, 1991). Approximately 1 μg of total DNA was digested with Mse I; the digested DNA was size fractionated by agarose gel electrophoresis and Southern blotted. The blots were hybridized with a ^32 P-labeled 0.5 kb PCR™ DNA fragments composed of the telomere repeat d(TTAGGG), which served as a probe for the telomeres. The hybridized probe was detected by autoradiography and each lane on the film was analyzed by phosphoimage analysis (Molecular Dynamics).
Telomeres shorten at an average rate of 65-100 base pairs per cell division (Counter et al., 1992). To observe a significant effect of an agent on telomere length, e.g., shortening the telomeres by >1 kilobase in MCF7 cells (5.7 kbases), a minimum of […] population doubling times will be required.

MDA-231 = assay: Cytotoxicity (MTT) MDA-231; assay type: cell-based, human; settings: Homo sapiens, MDA-MB-231; MDA-231 (breast), 4-7 days; read-out: IC 50 cytotoxicity
Method: as §1

PC3 = assay: Cytotoxicity (MTT) PC3; assay type: cell-based, human; settings: Homo sapiens, PC-3; PC3 (prostate), 4-7 days; read-out: IC 50 cytotoxicity
Method: as §1

human telomerase = human telomerase (Homo sapiens, UniProt O14746); assay: Telomerase inhibition, primer extension assay in HeLa cell extract; assay type: biochemical
human telomerase, sequence (O14746 whole entry): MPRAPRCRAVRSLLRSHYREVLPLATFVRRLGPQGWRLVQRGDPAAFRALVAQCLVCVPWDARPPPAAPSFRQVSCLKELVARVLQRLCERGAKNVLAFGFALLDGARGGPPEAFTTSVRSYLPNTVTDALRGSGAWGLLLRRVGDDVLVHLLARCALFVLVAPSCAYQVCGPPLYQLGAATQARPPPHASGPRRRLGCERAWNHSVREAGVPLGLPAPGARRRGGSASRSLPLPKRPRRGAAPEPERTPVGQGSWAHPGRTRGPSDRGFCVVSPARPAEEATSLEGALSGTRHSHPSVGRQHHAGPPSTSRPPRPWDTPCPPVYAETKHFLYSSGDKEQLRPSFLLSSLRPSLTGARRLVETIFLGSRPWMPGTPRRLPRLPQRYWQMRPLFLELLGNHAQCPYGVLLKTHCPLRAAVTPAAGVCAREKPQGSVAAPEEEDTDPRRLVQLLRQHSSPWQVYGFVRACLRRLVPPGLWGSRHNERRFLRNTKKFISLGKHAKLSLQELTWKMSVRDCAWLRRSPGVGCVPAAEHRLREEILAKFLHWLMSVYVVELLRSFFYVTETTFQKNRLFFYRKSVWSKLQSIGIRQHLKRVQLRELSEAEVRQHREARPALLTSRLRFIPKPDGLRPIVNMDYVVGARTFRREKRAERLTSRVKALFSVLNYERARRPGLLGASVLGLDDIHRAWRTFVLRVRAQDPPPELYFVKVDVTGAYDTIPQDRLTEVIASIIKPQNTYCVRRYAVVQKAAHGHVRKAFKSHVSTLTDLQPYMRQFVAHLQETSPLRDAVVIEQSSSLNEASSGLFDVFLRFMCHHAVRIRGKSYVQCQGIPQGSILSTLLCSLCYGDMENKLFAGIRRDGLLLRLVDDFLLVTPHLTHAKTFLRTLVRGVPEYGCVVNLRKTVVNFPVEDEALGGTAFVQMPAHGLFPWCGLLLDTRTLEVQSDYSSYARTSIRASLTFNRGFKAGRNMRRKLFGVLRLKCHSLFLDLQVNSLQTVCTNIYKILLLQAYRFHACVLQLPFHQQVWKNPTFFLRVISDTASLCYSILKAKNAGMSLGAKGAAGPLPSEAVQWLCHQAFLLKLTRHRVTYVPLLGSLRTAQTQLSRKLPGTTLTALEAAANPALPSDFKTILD

[6] = system: DNA quadruplex in single-stranded template with four telomeric repeats; assay: DNA synthesis arrest assay (Taq DNA polymerase); assay type: biochemical
Method: This assay was a modification of that described by Weitzmann et al. (Wang and Patel, 1993). Briefly, primers (24 nM) labeled with [γ-^32 P] ATP were mixed with template DNA PQ74 (12 nM) in a Tris-HCl buffer (10 mM Tris, pH 8.0) containing 10 mM MgCl2 and heated at 90° C. for 4 min. After cooling at room temperature for 15 min, spermidine (to give 100 μM) and TMPyP4 (to give the concentrations indicated in the figure) were added. The primer extension reactions were initiated by adding dNTP (final concentration 100 μM) and Taq DNA polymerase (2.5 U/reaction, Boehringer Mannheim). The reactions were incubated at 55 C. (or otherwise as indicated) for 15 min, then stopped by adding an equal volume of stop buffer (95% formamide, 10 mM EDTA, 10 mM NaOH, 0.1% xylene cyanol, 0.1% bromophenol blue). The products were separated on a 12% polyacrylamide sequencing gel.
A single-stranded DNA template, which included four telomeric repeats, was taken, and an 18-base primer complementary to the […] was extended using Taq DNA polymerase.

LNCap = assay: Cytotoxicity (MTT) LNCap; assay type: cell-based, human; settings: Homo sapiens; LNCap (prostate), 4-7 days; read-out: IC 50 cytotoxicity
Method: as §1

BT-20 = assay: Cytotoxicity (MTT) BT-20; assay type: cell-based, human; settings: Homo sapiens; BT-20 (breast), 4-7 days; read-out: IC 50 cytotoxicity
Method: as §1

HeLa cells = assay: Chromosome fusion in HeLa cells; assay type: cell-based, human; settings: 3 μM, 2-4 days

C[n+]1ccc(-c2c3nc(c(-c4cc[n+](C)cc4)c4ccc([nH]4)c(-c4cc[n+](C)cc4)c4nc(c(-c5cc[n+](C)cc5)c5ccc2[nH]5)C=C4)C=C3)cc1 [TMPyP4, 5,10,15,20-tetra-(N-methyl-4-pyridyl)porphine]
G2/M phase fraction (MCF7 cells; 100 μM, days 4, 8 and 15): time-dependent gradual increase in the G2/M phase
MCF7 cells arrested in G2/M (MCF7 cells; long-term exposure): not more than 32%
accumulation in tumor tissue [1]: accumulation in tumor tissue in mice
uptake / nuclear accumulation [2]: rapidly accumulate (within min) in the nuclei of cultured human dermal fibroblasts
uptake / nuclear accumulation ([2]; listed as tetra(N-methyl-4-pyridyl)porphyrin): taken up by cells and localized in organelles known to contain DNA
IC50 (HeLa): 18.7 ± 3.89 µM
IC50 (DU145): 93.6 µM
photocleavage selectivity [3]: clear selectivity for cleavage at the 5'-ApG-3' step at G1 and G7, and 5'-GpT-3' step at G6 and G12
CC50 [4]: 13.5 µM
IC50 (Raji): 11.9 µM
IC50 (Daudi): 3.1 µM
IC50 (MCF-7): 49.6 µM
effect on telomere shortening [5]: No detectable effects on telomere shortening
IC50 (MDA-231): 44 µM
IC50 (PC3): 184 µM
% Inhibition of telomerase (human telomerase; 25 µM): 60%
IC50 (human telomerase; IC50 telomerase): 6.5 ± 1.4 µM
IC50 (human telomerase; IC50 telomerase (text)): 6.5 ± 1.4 µM
IC50 (human telomerase; Telomerase Inhibition): 15 µM
inhibition at 25 µM (human telomerase; read-out: amount of inhibition of telomerase): 72%
melting temperature of the quadruplex [6]: increased the melting temperature of the quadruplex
pause site band intensity ([6]; Tris buffer without K+ or Na+): more intense in a concentration-dependent manner
persistence of bands at the pause site ([6]; temperature dependence): up to 65 °C
IC50 (LNCap): 22.8 µM
IC50 (BT-20): 106 µM
fused chromosomes (HeLa cells): number of fused chromosomes was increased in comparison with the untreated controls
